Results from US20210230213A1, “ARAMCHOL SALTS” (GALMED RESEARCH AND DEVELOPMENT LTD., priority 2013, published 2021).
Values joined by “and” are separate entries in the source; they are usually repeats but may differ in a detail not shown here. Equal values may be shown once.

Tests used:
Bulk and tapped density = assay type: physicochemical
From the text: Measurements of tapped and bulk densities are used to predict the flow properties and compressibility of powders. These two properties are important for manufacture of solid dosage formulations, such as tablets and capsules. Compounds with low values of tapped and bulk densities may be subject to difficulties in tablet compression, and therefore may require additional processing for improving flow properties. […] Therefore, to improve flow properties a wet granulation process is used prior to tablet compression.

[1] = Fill weight of size 00 HPMC capsule; assay type: physicochemical; conditions: hard HPMC capsule size 00, filled as is without tapping
From the text: Aramchol (free acid), and the three salts were filled as are, into hard HPMC (Hypromellose; Capsule size 00 (CapsCanada, ON, Canada) without taping, fill weight is presented in table 9.

[2] = Accelerated stability of Aramchol N-methylglucamine at 40° C./75% RH (Example 5); assay type: physicochemical; conditions: for assay: calculated against free acid reference
Method: The following parameters were determined at t=0, t=1 week, t=2 weeks: appearance, LC-purity, LC-assay (the assay is calculated against the reference which is the free acid and therefore, the results are less than 100%), water content. The appearance and purity remained unchanged under the investigated conditions. […] The calculated assay remained relatively unchanged under the investigational conditions. Water content increased under the investigational conditions and the material seemed hygroscopic. The attraction of water in the solid state form was more prominent for material stored in an open container.

[3] = In vivo permeability / PK after intrajejunal administration in cannulated rats (Example 7); design: species or system male Wistar rats; conditions: rat
Method: An in vivo permeability study of Aramchol salts was performed in male Wistar rats cannulated in the jugular vein and in the jejunum. Intestinal cannulation was performed in order to bypass protonation of Aramchol salts in acidic gastric pH. Aramchol salts solubilized in PBS (30 mg/mL) were administered to rats intestine (jejunum) in a dose of 100 mg/kg (based on free acid), via a cannula inserted into the proximal side of the jejunum. A suspension of Aramchol free acid (in PBS, 30 mg/mL) was administered via the same route and was used as control. Blood samples were withdrawn via a cannula inserted into jugular vein at pre-determined time points (pre-dose, 1 hr, 2 hr, 4 hr, 8 hr, 12 hr, 24 hr post dose). Plasma concentrations of Aramchol (free acid) were measured using a liquid chromatography-tandem mass spectrometry (LC-MS-MS) method by Analyst Bioanalytical Laboratories, Israel. All PK parameters were calculated using non-compartmental analysis. Only those plasma concentrations equal to or greater than the lower limit of quantitation (LOQ) (48.66 ng/mL) were used in the analysis. Plasma concentrations <LOQ that occurred from pre-dose to the first concentration ≥LOQ were treated as 0. Actual sampling times were used for all pharmacokinetic analyses. The following PK parameters were calculated: maximum plasma concentration (Cmax), time to Cmax (Tmax), area under the plasma concentration-time curve from time of administration until the last plasma concentration (AUC0-4), AUC/dose, elimination half-life (t½). Cmax and Tmax were taken directly from the data. Area under the curve from zero to the final sample with a concentration ≥LOQ. AUC0-4 was calculated using the linear trapezoidal method.

[4] = Pharmacokinetics of capsules in dogs, single dose and BID (Example 8); conditions: dogs
Method: Capsules containing 100 mg of Aramchol were dosed to dogs as either the free acid or the meglumine salt.
The complete data-set across all animals and time-points for each dose form (free acid or meglumine salt) were fit to single compartment PK models with first order rate of absorption Ka (h−1) and elimination parameterised by CL and V (rate of elimination=CL/V, h−1). For the meglumine salt group, the first dose data for M5 was removed.
Capsules containing 100 mg of Aramchol were dosed to dogs as either the free acid or the meglumine salt BID. […] A clinical study that investigated the plasma concentration of Aramchol after oral dosing of 300 mg BID at steady state was conducted in 16 healthy volunteers.

[5] = Twice daily administration for 10 days of Aramchol and Aramchol meglumine in humans (Example 9); assay type: in vivo; conditions: free acid 300 mg, meglumine salt 383 mg
Method: 300 mg aramchol free acid were administered to human subjects twice daily, and 383 mg aramchol meglumine salt were administered to human subjects twice daily, as detailed in FIG. 13.

[6] = Mathematical extrapolation of dog data to humans for meglumine salt
[7] = 100 mg/kg, mean ± standard error
[8] = capsule, Day 1, individual animals, listed as Aramchol meglumine salt
[9] = capsule, Day 1 single dose, Mean
[10] = capsule, Day 11, individual animals, listed as Aramchol meglumine salt
[11] = capsule, Day 11 final dose after BID dosing, Mean
[12] = humans, prediction using % CV 24.3

Substance: 3β-arachidylamido-7α,12α-dihydroxy-5β-cholan-24-oic acid N-methylglucamine salt
- Bulk density (Bulk and tapped density): 0.57 g/mL
- Tapped density (Bulk and tapped density): 0.66 g/mL
- fill weight of one 00 size capsule [1]: 0.30 gram
- purity ([2]; 40° C./75% RH, as a solution in a closed flask, T = 0): 99.5%
- purity ([2]; 40° C./75% RH, as a solution in a closed flask, T = 1 (week)): 99.5%
- purity ([2]; 40° C./75% RH, as a solution in a closed flask, T = 2 (weeks)): 99.5%
- water ([2]; 40° C./75% RH, solid in a closed container, T = 0): 1.2%
- water ([2]; 40° C./75% RH, solid in a closed container, T = 1 (week)): 1.6%
- water ([2]; 40° C./75% RH, solid in a closed container, T = 2 (weeks)): 2.0%
- water ([2]; 40° C./75% RH, solid in an open container, T = 0): 1.2%
- water ([2]; 40° C./75% RH, solid in an open container, T = 1 (week)): 4.3%
- water ([2]; 40° C./75% RH, solid in an open container, T = 2 (weeks)): 5.7%
- purity ([2]; 40° C./75% RH, solid state form in a closed container, T = 0): 99.5%
- purity ([2]; 40° C./75% RH, solid state form in a closed container, T = 1 (week)): 99.4%
- purity ([2]; 40° C./75% RH, solid state form in a closed container, T = 2 (weeks)): 99.5%
- purity ([2]; 40° C./75% RH, solid state form in an open container, T = 0): 99.5%
- purity ([2]; 40° C./75% RH, solid state form in an open container, T = 1 (week)): 99.5%
- purity ([2]; 40° C./75% RH, solid state form in an open container, T = 2 (weeks)): 99.5%
- purity on exposure to 40° C./75% RH ([2]; 40° C./75% RH, up to 2 weeks): no change to purity values
- assay ([2]; solid in a closed container, T = 0): 74.7%
- assay ([2]; solid in a closed container, T = 1 (week)): 72.8%
- assay ([2]; solid in a closed container, T = 2 (weeks)): 74.4%
- assay ([2]; solid in an open container, T = 0): 74.7%
- assay ([2]; solid in an open container, T = 1 (week)): 76.7%
- assay ([2]; solid in an open container, T = 2 (weeks)): 71.9%
- assay ([2]; solution in a closed flask, T = 0): 74.7%
- assay ([2]; solution in a closed flask, T = 1 (week)): 75.3%
- assay ([2]; solution in a closed flask, T = 2 (weeks)): 74.8%
- increase in Cmax compared to Aramchol free acid [3]: 3.6 fold
- Cmax ([3]; 100 mg/kg (based on free acid) in PBS 30 mg/mL, plasma Aramchol (free acid), mean ± standard error): 5012.1 ± 1879.9 (5) ng/mL
- AUC(0-t) [3, 7]: 33625.2 ± 9567.7 (5) hr × ng/mL
- AUC/dose [3, 7]: 331.7 ± 82.5 (5) hr × ng × kg/mL × mg
- t1/2 [3, 7]: 5.2 ± 1.0 (5) hr
- Tmax ([3]; 100 mg/kg, median): 4.0 (5) [2-4] hr
- higher plasma exposure than free acid at the same molar dose [4]: 26%
- AUCss ([4]; 100 mg BID capsules, AUC 0-72 h from last administration on day 11, N = 3): 1,143,428 ng*h/mL
- Cmax ([4]; capsule 100 mg Aramchol, Day 1 single dose, Mean): 4880 ng/mL
- Cmax ([4]; capsule, Day 1, individual animals (1M-3M free acid, 4M-6M meglumine salt), listed as Aramchol meglumine salt): 5770 ng/mL and 1720 ng/mL and 7160 ng/mL
- AUC0-12 [4, 8]: 34.8 µg·h/mL and 3.8 µg·h/mL and 53.2 µg·h/mL
- AUCinf [4, 8]: 205 µg·h/mL and 66.9 µg·h/mL and 440 µg·h/mL
- Half-life [4, 8]: 19.2 h and 23.1 h and 26.1 h
- Tmax [4, 8]: 12 h and 24 h
- AUC0-12 [4, 9]: 30.6 µg·h/mL
- AUCinf [4, 9]: 237 µg·h/mL
- Half-life [4, 9]: 22.8 h
- Tmax [4, 9]: 20 h
- AUC0-12 [4, 10]: 365 µg·h/mL and 302 µg·h/mL and 315 µg·h/mL
- AUCinf [4, 10]: 1600 µg·h/mL and 1150 µg·h/mL and 1590 µg·h/mL
- Cmax [4, 10]: 37600 ng/mL and 38800 ng/mL and 28300 ng/mL
- Half-life [4, 10]: 29.6 h and 28.9 h and 35.3 h
- Tmax [4, 10]: 8 h and 4 h
- AUC0-12 [4, 11]: 328 µg·h/mL
- AUCinf [4, 11]: 1450 µg·h/mL
- Cmax [4, 11]: 34900 ng/mL
- Half-life [4, 11]: 31.3 h
- Tmax [4, 11]: 6.67 h
- greater exposure using the salt (from model Cl) ([4]; compartmental modelling): 28%
- AUCinf from day 11 onwards ([4]; final dose day 11): 1450 µg·h/mL
- AUC0-12 D11 ([4]; final dose day 11, steady state): 328 µg·h/mL
- AUCinf D1 ([4]; first dose day 1, all animals): 237 µg·h/mL
- AUCinf D1 ([4]; first dose day 1, animal 5M (M5) excluded): 323 µg·h/mL
- Cl ([4]; single compartment PK model): 320
- AUCinf higher than the free acid ([4]; single dose day 1, animal 5M excluded): 34%
- AUCss 0-12 h ([5]; BID for 10 days): 109 µg·h/mL
- Cavg ([5]; BID for 10 days, listed as 3β-arachidylamido-7α,12α-dihydroxy-5β-cholan-24-oic acid-meglumine salt): 8,318 ng/ml
- Cavg ([5]; BID for 10 days, listed as Aramchol Meglumine): 8318 ng/mL
- Cavg ([5]; BID for 10 days, listed as aramchol meglumine salt): 8318 ng/mL
- AUCss ([5]; BID): 109,000 ng*h/mL
- AUCss [6]: 144,295 ng*h/mL
- AUCss ([6]; embodiment, b22 and b98 say the value pertains to dogs): 144,295 ng*h/mL
- maximum plasma exposure [6, 12]: 179.382 µg·h/mL
- minimum plasma exposure [6, 12]: 109.208 µg·h/mL
